Experiments:
[1] = test system: healthy volunteers; test: Human Study 2: treatment-emergent adverse events (TEAE), safety, Modified OAA/S, DSST, BIS; type: in vivo; details: for DSST mean change from baseline: 1 h post-treatment
Protocol: In human study 1, fospropofol disodium was formulated as a sterile aqueous solution at a concentration of 20 mg/mL. Each vial provided contained 20 mL of solution, suitable for intravenous injection. Fospropofol was administered as a single dose of 400 mg orally, directly into the duodenum by gastroscopy or intravenously over 10 min. In human study 2, fospropofol disodium in capsules (200 mg) or matching placebo was administered orally.
A second single ascending dose study was subsequently performed to assess the safety, tolerability, and pharmacokinetics of oral administration of fospropofol as a capsule. This was a double-blind, randomized, crossover, placebo-controlled, single ascending dose study. Ten healthy volunteers were enrolled, 6 males and 4 females between 18 and 45 years of age inclusive with a body mass index between 18 and 28 kg/m^2. Each subject received four ascending oral doses of fospropofol disodium (200, 600, 1,000 and 1,200 mg) and one of placebo. Placebo was administered randomly, in one of the five periods. Subjects stayed in the clinical research unit over 3 days per treatment for five consecutive treatments. Between treatments, there were wash-out periods of at least 6 days, during which interim safety evaluations were made to assess the safety of the subsequent higher doses. Fopropofol disodium in capsules (200 mg) or matching placebo was administered orally. Pharmacokinetic parameters, safety and pharmacodynamic effect were assessed in a manner similar to that in Study 1 described above. In addition, the digit symbol substitution test (DSST) and BIS Index (a commercially available EEG derived measure of anesthesia and sedation, Coviden, Mansfield, Mass., USA) were added as additional pharmacodynamics measures.

[2] = IV lipid emulsion, animals; cited from earlier work
[3] = test system: patients; details: anesthetic induction doses; cited from earlier work
[4] = 200 mg oral, listed as Fospropofol
[5] = 600 mg oral, listed as Fospropofol
[6] = 1000 mg oral, listed as Fospropofol
[7] = 1200 mg oral, listed as Fospropofol

CC(C)c1cccc(C(C)C)c1OCOP(=O)(O)O [fospropofol]
BIS score range ([1]; 200 mg): 80-98%
TEAE EYE DISORDERS, subjects (%) ([1]; 200 mg oral): (10%)
TEAE GASTROINTESTINAL DISORDERS, events (E) ([1]; 200 mg oral): 2
TEAE GASTROINTESTINAL DISORDERS, subjects (%) ([1]; 200 mg oral): (10%)
TEAE GENERAL DISORDERS AND ADMINISTRATION SITE CONDITIONS, subjects (%) ([1]; 200 mg oral): (10%)
TEAE INFECTIONS AND INFESTATIONS, subjects (%) ([1]; 200 mg oral): (10%)
TEAE MUSCULOSKELETAL AND CONNECTIVE DISORDERS, subjects (%) ([1]; 200 mg oral): (10%)
TEAE NERVOUS SYSTEM DISORDERS, events (E) ([1]; 200 mg oral): 10
TEAE NERVOUS SYSTEM DISORDERS, subjects (%) ([1]; 200 mg oral): (70%)
TEAE RESPIRATORY THORACIC AND MEDIASTINAL DISORDERS, subjects (%) ([1]; 200 mg oral): (10%)
TEAE TOTAL, events (E) ([1]; 200 mg oral): 18
TEAE TOTAL, subjects (%) ([1]; 200 mg oral): 80%
TEAE VASCULAR DISORDERS, subjects (%) ([1]; 200 mg oral): (10%)
TEAE abdominal pain, subjects (%) ([1]; 200 mg oral): (10%)
TEAE eye irritation, subjects (%) ([1]; 200 mg oral): (10%)
TEAE feeling hot, subjects (%) ([1]; 200 mg oral): (10%)
TEAE nausea, subjects (%) ([1]; 200 mg oral): (10%)
TEAE paraesthesia oral, subjects (%) ([1]; 200 mg oral): (30%)
TEAE paraesthesia, events (E) ([1]; 200 mg oral): 3
TEAE paraesthesia, subjects (%) ([1]; 200 mg oral): (20%)
TEAE pharyngolaryngeal pain, subjects (%) ([1]; 200 mg oral): (10%)
TEAE rhinitis, subjects (%) ([1]; 200 mg oral): (10%)
TEAE sensation of heaviness, subjects (%) ([1]; 200 mg oral): (10%)
TEAE somnolence, subjects (%) ([1]; 200 mg oral): 40%
TEAE vein pain, subjects (%) ([1]; 200 mg oral): (10%)
TEAE TOTAL, subjects (%) [1, 4]: (80%)
TEAE somnolence, subjects (%) [1, 4]: (10%)
DSST mean change from baseline ([1]; 200 mg): 6
BIS score range ([1]; 600 mg): 71-98%
TEAE GASTROINTESTINAL DISORDERS, events (E) ([1]; 600 mg oral): 4
TEAE GASTROINTESTINAL DISORDERS, subjects (%) ([1]; 600 mg oral): (30%)
TEAE GENERAL DISORDERS AND ADMINISTRATION SITE CONDITIONS, events (E) ([1]; 600 mg oral): 5
TEAE GENERAL DISORDERS AND ADMINISTRATION SITE CONDITIONS, subjects (%) ([1]; 600 mg oral): (40%)
TEAE NERVOUS SYSTEM DISORDERS, events (E) ([1]; 600 mg oral): 16
TEAE NERVOUS SYSTEM DISORDERS, subjects (%) ([1]; 600 mg oral): (70%)
TEAE PSYCHIATRIC DISORDERS, subjects (%) ([1]; 600 mg oral): (10%)
TEAE REPRODUCTIVE SYSTEM AND BREAST DISORDERS, subjects (%) ([1]; 600 mg oral): (10%)
TEAE RESPIRATORY THORACIC AND MEDIASTINAL DISORDERS, subjects (%) ([1]; 600 mg oral): (10%)
TEAE TOTAL, events (E) ([1]; 600 mg oral): 29
TEAE TOTAL, subjects (%) ([1]; 600 mg oral): 90%
TEAE VASCULAR DISORDERS, subjects (%) ([1]; 600 mg oral): (10%)
TEAE abdominal pain, subjects (%) ([1]; 600 mg oral): (10%)
TEAE bowel sounds abnormal, subjects (%) ([1]; 600 mg oral): (10%)
TEAE dizziness, subjects (%) ([1]; 600 mg oral): (20%)
TEAE dysgeusia, subjects (%) ([1]; 600 mg oral): (10%)
TEAE euphoric mood, subjects (%) ([1]; 600 mg oral): (10%)
TEAE fatigue, subjects (%) ([1]; 600 mg oral): (20%)
TEAE feeling hot, subjects (%) ([1]; 600 mg oral): (30%)
TEAE headache, events (E) ([1]; 600 mg oral): 3
TEAE headache, subjects (%) ([1]; 600 mg oral): (20%)
TEAE nausea, subjects (%) ([1]; 600 mg oral): (10%)
TEAE paraesthesia, subjects (%) ([1]; 600 mg oral): (50%)
TEAE perineal pain, subjects (%) ([1]; 600 mg oral): (10%)
TEAE pharyngolaryngeal pain, subjects (%) ([1]; 600 mg oral): (10%)
TEAE phlebitis superficial, subjects (%) ([1]; 600 mg oral): (10%)
TEAE proctalgia, subjects (%) ([1]; 600 mg oral): (10%)
TEAE somnolence, subjects (%) ([1]; 600 mg oral): 50%
TEAE TOTAL, subjects (%) [1, 5]: (90%)
TEAE somnolence, subjects (%) [1, 5]: (50%)
DSST mean change from baseline ([1]; 600 mg): −5
BIS score range ([1]; 1,000 mg): 70-98%
TEAE CARDIAC DISORDERS, subjects (%) ([1]; 1000 mg oral): (10%)
TEAE GASTROINTESTINAL DISORDERS, subjects (%) ([1]; 1000 mg oral): (40%)
TEAE GENERAL DISORDERS AND ADMINISTRATION SITE CONDITIONS, subjects (%) ([1]; 1000 mg oral): (30%)
TEAE NERVOUS SYSTEM DISORDERS, events (E) ([1]; 1000 mg oral): 14
TEAE NERVOUS SYSTEM DISORDERS, subjects (%) ([1]; 1000 mg oral): (70%)
TEAE REPRODUCTIVE SYSTEM AND BREAST DISORDERS, subjects (%) ([1]; 1000 mg oral): (10%)
TEAE RESPIRATORY THORACIC AND MEDIASTINAL DISORDERS, subjects (%) ([1]; 1000 mg oral): (10%)
TEAE TOTAL, events (E) ([1]; 1000 mg oral): 28
TEAE TOTAL, subjects (%) ([1]; 1000 mg oral): 80%
TEAE VASCULAR DISORDERS, events (E) ([1]; 1000 mg oral): 4
TEAE VASCULAR DISORDERS, subjects (%) ([1]; 1000 mg oral): (30%)
TEAE dysphagia, subjects (%) ([1]; 1000 mg oral): (10%)
TEAE fatigue, subjects (%) ([1]; 1000 mg oral): (10%)
TEAE feeling hot, subjects (%) ([1]; 1000 mg oral): (20%)
TEAE headache, subjects (%) ([1]; 1000 mg oral): (20%)
TEAE nausea, subjects (%) ([1]; 1000 mg oral): (30%)
TEAE palpitations, subjects (%) ([1]; 1000 mg oral): (10%)
TEAE paraesthesia oral, subjects (%) ([1]; 1000 mg oral): (10%)
TEAE paraesthesia, events (E) ([1]; 1000 mg oral): 7
TEAE paraesthesia, subjects (%) ([1]; 1000 mg oral): (60%)
TEAE perineal pain, subjects (%) ([1]; 1000 mg oral): (10%)
TEAE phlebitis superficial, events (E) ([1]; 1000 mg oral): 4
TEAE phlebitis superficial, subjects (%) ([1]; 1000 mg oral): (30%)
TEAE somnolence, subjects (%) ([1]; 1000 mg oral): 40%
TEAE throat irritation, subjects (%) ([1]; 1000 mg oral): (10%)
subjects with somnolence considered severe ([1]; 1000 mg oral): 1
TEAE TOTAL, subjects (%) [1, 6]: (80%)
TEAE somnolence, subjects (%) [1, 6]: (40%)
DSST mean change from baseline ([1]; 1,000 mg): −11
lowest Modified OAA/S score ([1]; 1,000 mg, Subject 003, 1 and 1.5 h after treatment): 3
BIS score range ([1]; 1,200 mg): 70-98%
TEAE GASTROINTESTINAL DISORDERS, subjects (%) ([1]; 1200 mg oral): (30%)
TEAE GENERAL DISORDERS AND ADMINISTRATION SITE CONDITIONS, events (E) ([1]; 1200 mg oral): 6
TEAE GENERAL DISORDERS AND ADMINISTRATION SITE CONDITIONS, subjects (%) ([1]; 1200 mg oral): (30%)
TEAE INFECTIONS AND INFESTATIONS, subjects (%) ([1]; 1200 mg oral): (14%)
TEAE NERVOUS SYSTEM DISORDERS, events (E) ([1]; 1200 mg oral): 13
TEAE NERVOUS SYSTEM DISORDERS, subjects (%) ([1]; 1200 mg oral): (90%)
TEAE PSYCHIATRIC DISORDERS, subjects (%) ([1]; 1200 mg oral): (10%)
TEAE REPRODUCTIVE SYSTEM AND BREAST DISORDERS, subjects (%) ([1]; 1200 mg oral): (10%)
TEAE RESPIRATORY THORACIC AND MEDIASTINAL DISORDERS, subjects (%) ([1]; 1200 mg oral): (10%)
TEAE TOTAL, events (E) ([1]; 1200 mg oral): 26
TEAE TOTAL, subjects (%) ([1]; 1200 mg oral): 90%
TEAE VASCULAR DISORDERS, subjects (%) ([1]; 1200 mg oral): (10%)
TEAE defecation urgency, subjects (%) ([1]; 1200 mg oral): (10%)
TEAE dyspnoea, subjects (%) ([1]; 1200 mg oral): (10%)
TEAE euphoric mood, subjects (%) ([1]; 1200 mg oral): (10%)
TEAE fatigue, subjects (%) ([1]; 1200 mg oral): (10%)
TEAE feeling hot, events (E) ([1]; 1200 mg oral): 4
TEAE feeling hot, subjects (%) ([1]; 1200 mg oral): (30%)
TEAE headache, subjects (%) ([1]; 1200 mg oral): (10%)
TEAE nausea, subjects (%) ([1]; 1200 mg oral): (20%)
TEAE paraesthesia oral, subjects (%) ([1]; 1200 mg oral): (10%)
TEAE paraesthesia, subjects (%) ([1]; 1200 mg oral): (30%)
TEAE perineal pain, subjects (%) ([1]; 1200 mg oral): (10%)
TEAE somnolence, subjects (%) ([1]; 1200 mg oral): 80%
TEAE vein pain, subjects (%) ([1]; 1200 mg oral): (10%)
subjects with somnolence considered severe ([1]; 1200 mg oral): 1
TEAE TOTAL, subjects (%) [1, 7]: (90%)
TEAE somnolence, subjects (%) [1, 7]: (80%)
subjects with Modified OAA/S score of 4 ([1]; 1,200 mg, 1.5-h time point): 40%
DSST mean change from baseline ([1]; 1,200 mg): −13
laboratory values, vital signs, ECGs, physical examinations ([1]; 200-1,200 mg oral): no changes
serious adverse events ([1]; 200-1,200 mg oral): No subject experienced a SAE
severity of most TEAEs ([1]; Study 2): mild or moderate
nausea, rate of occurrence ([1]; Study 2, all treatments): 50%
paresthesia, rate of occurrence ([1]; Study 2, all treatments): 60%
phlebitis superficial, rate of occurrence ([1]; Study 2, all treatments): 50%
mean BIS scores ([1]; all time points, all treatments): > 90%
subjects with Modified OAA/S score of 5 ([1]; at most time points, each treatment group): ≥ 80%

CC(C)c1cccc(C(C)C)c1O [propofol, 2,6-diisopropylphenol]
extraction by the liver [2]: 80%
patients with respiratory consequences (reduction in tidal volume, apnea) [3]: up to 83%

Reference: US11331271B2, “Buccal, sublingual and intranasal delivery of fospropofol” (The Johns Hopkins University, priority 2016, dated 2022)
